Data from PubChem BioAssay (NCI).
“And” between values parts separate entries of the source, which are not always exact repeats. Equal values may be shown once.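 These data come from cells grown in 96-well plates and exposed to compound for 48 hours at five concentrations. GI50 is the concentration that inhibits growth by half. TGI is the concentration that stops growth completely.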

What was measured:
Assay in all cases: NCI tumour cell line growth inhibition, 48 h
786-0 renal = system: 786-0 renal
SK-MEL-5 melanoma = system: SK-MEL-5 melanoma
EKVX NSCLC = system: EKVX NSCLC
HOP-92 NSCLC = system: HOP-92 NSCLC
SF-539 CNS = system: SF-539 CNS
NCI-H23 lung = system: NCI-H23 lung
UACC-62 melanoma = system: UACC-62 melanoma
OVCAR-5 ovarian = system: OVCAR-5 ovarian
SN12C renal = system: SN12C renal

| SMILES | TGI (786-0 renal) | GI50 (SK-MEL-5 melanoma) [µM] | TGI (SK-MEL-5 melanoma) | GI50 (EKVX NSCLC) [µM] | TGI (EKVX NSCLC) | GI50 (HOP-92 NSCLC) [µM] | TGI (HOP-92 NSCLC) | TGI (SF-539 CNS) | TGI (NCI-H23 lung) | GI50 (UACC-62 melanoma) [µM] | TGI (UACC-62 melanoma) | GI50 (OVCAR-5 ovarian) [µM] | TGI (OVCAR-5 ovarian) | TGI (SN12C renal) | GI50 (SF-539 CNS) [µM] | GI50 (NCI-H23 lung) [µM] | GI50 (SN12C renal) [µM] |
| --- | --- | --- | --- | --- | --- | --- | --- | --- | --- | --- | --- | --- | --- | --- | --- | --- | --- |
| NC(CS)C(=O)NCCNc1ccc(NCCNC(=O)C(N)CS)c2c1C(=O)c1c(O)ccc(O)c1C2=O (centres undefined) | 0.0831 µM and 0.0438 µM | 0.0231 | 1.33 µM and 0.373 µM | 0.0538 | 1.05 µM and 0.274 µM | 0.0416 | 0.195 µM and 1.03 µM | 0.728 µM and 0.193 µM | 0.0636 µM and 0.0484 µM | 0.0196 | 0.516 µM and 0.249 µM | 0.0756 | 1.58 µM and 0.718 µM | 0.0822 µM and 0.0691 µM | – | – | – |
| CCc1n[nH]c(=O)n1N=C(c1ccccc1)c1ccccc1 | > 100 µM | – | > 100 µM | – | 93.3 µM | – | > 100 µM | – | > 100 µM | – | > 100 µM | – | > 100 µM | > 100 µM | – | – | – |
| CC1(C)OC2OC(C(=O)c3ccccc3)C3OC(C)(C)OC3C2O1 (centres undefined) | > 100 µM | – | > 100 µM | – | > 100 µM | – | > 100 µM | > 100 µM | > 100 µM | – | > 100 µM | – | > 100 µM | > 100 µM | – | – | – |
| Cc1sc2nc3n(c(=O)c2c1C)N=C(c1ccccc1)CS3 | > 100 µM | – | > 100 µM | – | > 100 µM | – | > 100 µM | > 100 µM | > 100 µM | – | > 100 µM | – | > 100 µM | > 100 µM | – | – | – |
| CCSc1[nH]c(NC(=NC(C)C)NC(=O)c2ccccc2)c(C(N)=O)c1C(N)=O | > 10 µM | – | > 10 µM | – | > 10 µM | – | > 10 µM | – | > 10 µM | – | > 10 µM | – | – | > 10 µM | – | – | – |
| COC(=O)C1CCCN1C(=O)OC(C)(C)C (centres undefined) | > 100 µM | – | > 100 µM | – | > 100 µM | – | – | – | > 100 µM | – | > 100 µM | – | > 100 µM | > 100 µM | – | – | – |
| O=C1CCc2ccccc2O1 | > 100 µM | – | – | – | > 100 µM | – | > 100 µM | – | > 100 µM | – | > 100 µM | – | > 100 µM | > 100 µM | – | – | – |
| CC(C)(/C=N/O)/[N+]([O-])=C/c1ccccc1 | > 100 µM | – | > 100 µM | – | > 100 µM | – | > 100 µM | > 100 µM | > 100 µM | – | > 100 µM | – | > 100 µM | > 100 µM | – | – | – |
| CN(C)C1(c2cc3ccccc3s2)CCCCC1 | 49.8 µM | – | 33.3 µM | – | > 100 µM | – | 63.6 µM | > 100 µM | > 100 µM | – | 60.6 µM | – | > 100 µM | > 100 µM | – | – | – |
| COc1ccc2nc3c([N+](=O)[O-])ccc(NCCCN(C)C)c3c(N)c2c1 | 2.6 µM | – | 3.63 µM | – | 3.68 µM | – | 3.73 µM | 3.36 µM | 3.95 µM | – | 3.79 µM | – | 2.75 µM | 2.99 µM | – | – | – |
| CCOC(=O)c1cc([N+](=O)[O-])cc([N+](=O)[O-])c1Sc1ncnc2nc[nH]c12 | 2.07 µM | – | 27.7 µM | – | 13.1 µM | – | 2.52 µM | 15.7 µM | – | – | 21.3 µM | – | 27.6 µM | 5.34 µM | – | – | – |
| Cn1c(=O)oc2cc(C(=S)N3CCCCC3)ccc21 | > 100 µM | – | > 100 µM | – | > 100 µM | – | – | > 100 µM | > 100 µM | – | > 100 µM | – | > 100 µM | > 100 µM | – | – | – |
| O=c1cc(NNc2cccc(F)c2)[nH]c(=S)[nH]1 | > 100 µM | – | > 100 µM | – | > 100 µM | – | 99.5 µM | > 100 µM | – | – | – | – | > 100 µM | > 100 µM | – | – | – |
| N#CCN1CCCN(CC#N)CCN(CC#N)CCCN(CC#N)CC1 | > 100 µM | – | > 100 µM | – | – | – | > 100 µM | > 100 µM | > 100 µM | – | > 100 µM | – | > 100 µM | > 100 µM | – | – | – |
| Nc1nc(N)c2nc(CNc3ccc(C(=O)NC(CCNC(=O)c4ccccc4C(=O)O)C(=O)O)cc3)cnc2n1 (centres undefined) | > 100 µM | 0.0853 | > 100 µM | 0.0214 | > 100 µM | > 100 | > 100 µM | – | > 100 µM | – | – | 0.0863 | > 100 µM | > 100 µM | 0.0574 | 0.0324 | 0.102 |
| N#CC(C#N)C1CN2CCC1CC2 (centres undefined) | > 100 µM | – | > 100 µM | – | > 100 µM | – | – | > 100 µM | > 100 µM | – | > 100 µM | – | > 100 µM | > 100 µM | – | – | – |
| COc1cc(/C=C/C2=NN(c3cccc(S(=O)(=O)O)c3)C3(C2)SCC(=O)N3c2nc3ccccc3s2)cc(OC)c1OC (centres undefined) | 37.5 µM | – | > 100 µM | – | > 100 µM | – | > 100 µM | > 100 µM | > 100 µM | – | > 100 µM | – | > 100 µM | > 100 µM | – | – | – |
| COc1cc2nc3n(c(=O)c2cc1OC)CCCCC3 | > 100 µM | – | > 100 µM | – | > 100 µM | – | > 100 µM | – | > 100 µM | – | > 100 µM | – | > 100 µM | > 100 µM | – | – | – |
| O=C1C=CC(=O)[C@H]2C3C=CC(C4C3C3(Cl)C(Cl)=C(Cl)[C@]4(Cl)C3(Cl)Cl)[C@@H]12 (some centres undefined) | 18.4 µM | – | 15.3 µM | – | 15 µM | – | 7.69 µM | 17.9 µM | 25.7 µM | – | 21 µM | – | 19.7 µM | 18.2 µM | – | – | – |
| CON(C(=O)OC(C)(C)C)c1ccccc1 | > 100 µM | – | > 100 µM | – | > 100 µM | – | > 100 µM | – | > 100 µM | – | > 100 µM | – | > 100 µM | – | – | – | – |
| CC1(C)OC2[C@@H](CO[C@@]3([C@H]4OC(C)(C)O[C@@H]4CO)OC(C)(C)O[C@@H]23)O1 (some centres undefined) | > 100 µM | – | > 100 µM | – | > 100 µM | – | > 100 µM | – | > 100 µM | – | > 100 µM | – | > 100 µM | > 100 µM | – | – | – |
| Cc1csc2c(=O)n(COCc3ccccc3)c(=O)[nH]c12 | > 100 µM | – | > 100 µM | – | > 100 µM | – | > 100 µM | > 100 µM | > 100 µM | – | – | – | > 100 µM | > 100 µM | – | – | – |
| Cc1cc2c(cc1-c1cc3c(cc1C)C(C(C)C)=C(O)C(=O)/C3=C\Nc1ccccn1)/C(=C/Nc1ccccn1)C(=O)C(O)=C2C(C)C | > 100 µM | – | > 100 µM | – | > 100 µM | – | > 100 µM | > 100 µM | > 100 µM | – | > 100 µM | – | > 100 µM | > 100 µM | – | – | – |
